Assay: Inhibition of GST-tagged recombinant human cytomegalovirus DNA polymerase catalytic subunit UL54 expressed in baculovirus infected insect Sf21 cells assessed as incorporation of biotin-tagged dUTP after 30 mins by LANCE TR-FRET assay
Design: species or system Human betaherpesvirus 5

| SMILES | IC50 |
| --- | --- |
| CN(CC(=O)O)c1ccnc2c1cc(C(=O)NCc1ccc(Cl)cc1)c(=O)n2CC(=O)N1CC(C)(C)C1 | 50 nM |
| CC1(C)CN(C(=O)Cn2c(=O)c(C(=O)NCc3ccc(Cl)cc3)cc3cc(-c4nn[nH]n4)cnc32)C1 | 30 nM |
| COc1cc(N)nc2c1cc(C(=O)NCc1ccc(Cl)cc1)c(=O)n2CC(=O)N(C)CC1(CO)COC1 | 22 nM |
